Data as given in US9689021B2, “Method for measuring beta-lactam antibiotics” (priority 2011, dated 2017).
Read-outs that look alike come from different tables or passages of the source.

How the values were obtained:
[1] = biological target: class C beta-lactamase of Citrobacter freundii (Citrobacter freundii, UniProt P05193); settings: cited from earlier work
[2] = biological target: class C beta-lactamase of Pseudomonas aeruginosa (Pseudomonas aeruginosa, UniProt P24735); settings: cited from earlier work
class C beta-lactamase of Pseudomonas aeruginosa, sequence (P24735 27-397): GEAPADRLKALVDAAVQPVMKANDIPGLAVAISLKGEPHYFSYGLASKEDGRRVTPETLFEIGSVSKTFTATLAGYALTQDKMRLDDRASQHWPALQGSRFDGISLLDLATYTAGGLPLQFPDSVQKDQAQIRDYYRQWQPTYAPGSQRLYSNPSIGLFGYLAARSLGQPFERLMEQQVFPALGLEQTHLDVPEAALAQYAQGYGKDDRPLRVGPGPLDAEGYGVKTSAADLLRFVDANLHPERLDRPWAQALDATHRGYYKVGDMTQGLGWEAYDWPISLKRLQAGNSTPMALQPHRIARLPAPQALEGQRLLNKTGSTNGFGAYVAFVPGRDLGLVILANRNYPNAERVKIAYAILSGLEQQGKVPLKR

[3] = biological target: class C beta-lactamase of Escherichia coli K12 (Escherichia coli, UniProt P00811); settings: cited from earlier work
class C beta-lactamase of Escherichia coli K12, sequence (P00811 20-377): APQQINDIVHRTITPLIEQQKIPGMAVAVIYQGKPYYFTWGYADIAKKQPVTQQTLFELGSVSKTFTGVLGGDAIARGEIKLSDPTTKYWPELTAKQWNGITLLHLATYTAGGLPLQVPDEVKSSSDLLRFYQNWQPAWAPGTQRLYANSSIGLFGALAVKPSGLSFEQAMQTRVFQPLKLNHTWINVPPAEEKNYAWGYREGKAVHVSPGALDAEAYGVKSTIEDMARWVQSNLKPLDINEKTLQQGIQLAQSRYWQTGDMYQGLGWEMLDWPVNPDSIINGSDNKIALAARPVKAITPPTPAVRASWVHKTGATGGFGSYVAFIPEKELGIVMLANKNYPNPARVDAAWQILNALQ

[4] = tested on: class C beta-lactamase of Enterobacter cloacae 908R; settings: cited from earlier work
[5] = biological target: class C beta-lactamase of Serratia marcescens (Serratia marcescens, UniProt P18539); settings: cited from earlier work
class C beta-lactamase of Serratia marcescens, sequence (P18539 22-376): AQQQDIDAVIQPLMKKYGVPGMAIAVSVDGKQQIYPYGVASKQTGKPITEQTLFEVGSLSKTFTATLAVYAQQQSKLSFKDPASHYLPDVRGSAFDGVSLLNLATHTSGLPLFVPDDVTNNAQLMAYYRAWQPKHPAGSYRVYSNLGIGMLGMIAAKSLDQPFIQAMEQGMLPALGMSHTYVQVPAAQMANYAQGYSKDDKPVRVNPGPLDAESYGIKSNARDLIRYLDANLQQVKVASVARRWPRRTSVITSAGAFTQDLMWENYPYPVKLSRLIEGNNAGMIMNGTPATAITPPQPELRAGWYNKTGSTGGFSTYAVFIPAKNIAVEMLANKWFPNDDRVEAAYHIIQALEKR

[6] = biological target: class C beta-lactamase of Enterobacter cloacae P99 (Enterobacter cloacae, UniProt P05364); settings: cited from earlier work
class C beta-lactamase of Enterobacter cloacae P99, sequence (P05364 21-381): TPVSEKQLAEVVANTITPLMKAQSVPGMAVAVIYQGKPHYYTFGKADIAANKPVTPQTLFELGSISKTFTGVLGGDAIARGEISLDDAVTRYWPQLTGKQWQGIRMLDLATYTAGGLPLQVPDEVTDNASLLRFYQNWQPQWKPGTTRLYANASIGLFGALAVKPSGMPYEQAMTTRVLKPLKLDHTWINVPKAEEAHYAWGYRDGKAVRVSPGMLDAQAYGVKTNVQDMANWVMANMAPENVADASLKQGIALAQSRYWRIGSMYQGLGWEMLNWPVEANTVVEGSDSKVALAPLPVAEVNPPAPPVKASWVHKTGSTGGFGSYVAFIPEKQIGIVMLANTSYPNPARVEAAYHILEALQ

P99A266C [7] = biological target: T1, P99A266C (Enterobacter cloacae, UniProt P05364, A266C); experiment: FTIR-ATR biosensor binding; parameters: species or system Enterobacter cloacae P99; settings: 50-100 μg/mL, 10-20 min, 35 μl/min
T1 construct: made in house; host or cells: E. coli BL21(DE3), pET28 vector
T1 sequence (P05364 other isoform, or with tags, fused parts or gaps A266C): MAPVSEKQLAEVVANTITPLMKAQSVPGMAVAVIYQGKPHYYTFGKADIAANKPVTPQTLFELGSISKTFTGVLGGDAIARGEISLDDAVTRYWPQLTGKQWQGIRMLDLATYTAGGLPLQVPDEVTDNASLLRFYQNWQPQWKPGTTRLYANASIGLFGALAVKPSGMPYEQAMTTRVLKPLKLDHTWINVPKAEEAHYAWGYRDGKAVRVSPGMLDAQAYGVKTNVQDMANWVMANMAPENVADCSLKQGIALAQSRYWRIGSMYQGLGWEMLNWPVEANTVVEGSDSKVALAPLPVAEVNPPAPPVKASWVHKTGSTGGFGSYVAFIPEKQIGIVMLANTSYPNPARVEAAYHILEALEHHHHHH
Procedure: A solution of the beta-lactam antibiotic cefuroxim; obtained from Sigma-Aldrich in milliQ water at a concentration of 50-100 μg/mL was passed over the biosensor constructed in Example 3. The solution was passed over the crystal during 10-20 min at a rate of 35 μl/min.
FTIR-ATR spectra were recorded and cefuroxim binding was monitored by following the appearance of its characteristic signal. By subtracting the spectrum of the P99A266C, the spectrum of the acyl-enzyme complex appeared clearly. The intensity of the peak at 1730 cm^−1 allowed the quantitative measurement of cefuroxim binding. […] The structure of the acyl-enzyme complex is represented below.

P99A266C [8] = biological target: T1, P99A266C; experiment: Reaction of immobilized enzyme on ATR element with chromogenic substrate CENTA; type: biochemical, Enterobacter cloacae P99
Procedure: On the N-maleimide functionalized ATR element, the class C beta-lactamase P99A266C prepared as in example 2 was bound.
P99A266C binding onto the functionalized crystal was obtained by depositing 10 μL of a solution (phosphate buffer 50 mM, pH 7) of P99A266C enzyme (30 μg/ml) during 1 h, then rinsing with buffer during 15 min at a rate of 35 μL/min.
The immobilized enzyme was able to react rapidly with its chromogenic substrate CENTA: this was controlled by the appearance of the […] coloration.

[9] = tested on: Oxa-29 class D beta-lactamase; experiment: BLAC2 method, nitrocefin (CPR) rate with Oxa-29; type: biochemical
Procedure: (§1) The dilution buffer for the enzymes, CPR, standards and samples was 50 mM PBS buffer, pH 7.0.
(§2) The stock solution of CPR was 200 μM. Standards solution of ampicillin and cefuroxime were prepared at 100, 75, 50, 30, 15, 5, 1 and 0 mg/L.
In the method 2 (BLAC2), 99 μl of sample, 99 μl of CPR and 22 μl of enzyme Oxa-29 were mixed. The reaction kinetics was determined by measuring the absorbance at 482 nm as a function of time. Enzyme activity v0 max was adjusted at +/−0.2 ΔAbs482/min.

[10] = biological target: P99 class C beta-lactamase (Enterobacter cloacae, UniProt P05364); experiment: BLAC1 method, nitrocefin (CPR) rate with P99 (Example 7); type: biochemical
P99 class C beta-lactamase, sequence (P05364 21-381): as the sequence (P05364 21-381) above
Procedure: as §1, §2
In the method 1 (BLAC1), 10 μl of 50-fold diluted sample, 100 μl of CPR and 100 μl of enzyme P99 were mixed. The reaction kinetics was determined by measuring the absorbance at 482 nm as a function of time. Enzyme activity v0 max was adjusted at +/−0.33 ΔAbs482/min.

class C beta-lactamase of Citrobacter freundii, sequence (P05193 21-381): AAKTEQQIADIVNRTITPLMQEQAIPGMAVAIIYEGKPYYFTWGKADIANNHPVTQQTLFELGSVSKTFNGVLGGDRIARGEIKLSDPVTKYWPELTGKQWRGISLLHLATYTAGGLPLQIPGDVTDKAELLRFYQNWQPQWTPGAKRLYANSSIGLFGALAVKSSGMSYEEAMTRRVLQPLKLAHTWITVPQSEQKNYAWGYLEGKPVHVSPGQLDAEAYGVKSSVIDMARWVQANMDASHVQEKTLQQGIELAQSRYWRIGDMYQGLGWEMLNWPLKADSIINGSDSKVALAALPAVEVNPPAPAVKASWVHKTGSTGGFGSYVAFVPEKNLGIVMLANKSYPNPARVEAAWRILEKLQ

Compound: CC1(C)S[C@@H]2[C@H](NC(=O)Cc3ccccc3)C(=O)N2[C@H]1C(=O)O [Benzylpenicillin]
- Km [1]: 0.4 µM
- kcat [1]: 31 s⁻¹
- kcat ([2]; Pseudomonas aeruginosa): 76 s⁻¹
- Km [2]: 1.7 µM
- kcat [3]: 45 s⁻¹
- Km [4]: 0.5 µM
- kcat [4]: 18 s⁻¹
- kcat ([5]; Serratia marcescens): 75 s⁻¹
- Km [5]: 1.7 µM
- Km [6]: 0.6 µM
- kcat [6]: 14 s⁻¹

Compound: CO/N=C(\C(=O)N[C@@H]1C(=O)N2C(C(=O)O)=C(COC(N)=O)CS[C@H]12)c1ccco1 [Cefuroxime]
- kcat [1]: 0.04 s⁻¹
- Km ([1]; read-out: Km): 0.02 µM
- kcat ([2]; Pseudomonas aeruginosa): 0.05 s⁻¹
- Km ([2]; Pseudomonas aeruginosa, read-out: Km): 0.02 µM
- binding to P99A266C biosensor (FTIR-ATR) (P99A266C [7]): fixed to P99A266C (acyl-enzyme complex)
- kcat [3]: 0.15 s⁻¹
- Km ([3]; read-out: Km): 0.15 µM
- kcat [4]: 0.05 s⁻¹
- reaction of immobilized enzyme with chromogenic substrate when antibiotic fixed (P99A266C [8]): did not occur
- rate of Oxa-29 Class D beta-lactamase ([9]; BLAC2, 1 mg/L): 0.2079 ΔAbs482/min
- residual rate minus 1, (vomax/v0)−1, Oxa-29 ([9]; BLAC2, 1 mg/L): 0.072
- rate of Oxa-29 Class D beta-lactamase ([9]; BLAC2, 5 mg/L): 0.2025 ΔAbs482/min
- residual rate minus 1, (vomax/v0)−1, Oxa-29 ([9]; BLAC2, 5 mg/L): 0.100
- rate of Oxa-29 Class D beta-lactamase ([9]; BLAC2, 15 mg/L): 0.2011 ΔAbs482/min
- residual rate minus 1, (vomax/v0)−1, Oxa-29 ([9]; BLAC2, 15 mg/L): 0.108
- rate of Oxa-29 Class D beta-lactamase ([9]; BLAC2, 30 mg/L): 0.1992 ΔAbs482/min
- residual rate minus 1, (vomax/v0)−1, Oxa-29 ([9]; BLAC2, 30 mg/L): 0.118
- rate of Oxa-29 Class D beta-lactamase ([9]; BLAC2, 50 mg/L): 0.1897 ΔAbs482/min
- residual rate minus 1, (vomax/v0)−1, Oxa-29 ([9]; BLAC2, 50 mg/L): 0.174
- rate of Oxa-29 Class D beta-lactamase ([9]; BLAC2, 75 mg/L): 0.1796 ΔAbs482/min
- residual rate minus 1, (vomax/v0)−1, Oxa-29 ([9]; BLAC2, 75 mg/L): 0.241
- rate of Oxa-29 Class D beta-lactamase ([9]; BLAC2, 100 mg/L): 0.1749 ΔAbs482/min
- residual rate minus 1, (vomax/v0)−1, Oxa-29 ([9]; BLAC2, 100 mg/L): 0.274
- linear regression coefficient a (Y=aX+b), Oxa-29 ([9]; BLAC2, X in mg/L): 0.0023
- linear regression coefficient b (Y=aX+b), Oxa-29 ([9]; BLAC2, X in mg/L): 0.0003
- kcat ([5]; Serratia marcescens): 0.8 s⁻¹
- Km ([5]; Serratia marcescens, read-out: Km): 0.6 µM
- kcat [6]: 0.05 s⁻¹
- Km ([6]; read-out: Km): 0.016 µM
- rate of P99 class C beta-lactamase ([10]; BLAC1, 1 mg/L): 0.3247 ΔAbs482/min
- residual rate minus 1, (vomax/v0)−1, P99 ([10]; BLAC1, 1 mg/L): 0.048
- rate of P99 class C beta-lactamase ([10]; BLAC1, 5 mg/L): 0.2763 ΔAbs482/min
- residual rate minus 1, (vomax/v0)−1, P99 ([10]; BLAC1, 5 mg/L): 0.232
- rate of P99 class C beta-lactamase ([10]; BLAC1, 15 mg/L): 0.1938 ΔAbs482/min
- residual rate minus 1, (vomax/v0)−1, P99 ([10]; BLAC1, 15 mg/L): 0.756
- rate of P99 class C beta-lactamase ([10]; BLAC1, 30 mg/L): 0.1417 ΔAbs482/min
- residual rate minus 1, (vomax/v0)−1, P99 ([10]; BLAC1, 30 mg/L): 1.402
- rate of P99 class C beta-lactamase ([10]; BLAC1, 50 mg/L): 0.0957 ΔAbs482/min
- residual rate minus 1, (vomax/v0)−1, P99 ([10]; BLAC1, 50 mg/L): 2.556
- rate of P99 class C beta-lactamase ([10]; BLAC1, 75 mg/L): 0.0736 ΔAbs482/min
- residual rate minus 1, (vomax/v0)−1, P99 ([10]; BLAC1, 75 mg/L): 3.624
- rate of P99 class C beta-lactamase ([10]; BLAC1, 100 mg/L): 0.0539 ΔAbs482/min
- residual rate minus 1, (vomax/v0)−1, P99 ([10]; BLAC1, 100 mg/L): 5.314
- linear regression coefficient a (Y=aX+b), P99 ([10]; BLAC1, X in mg/L): 0.0518
- linear regression coefficient b (Y=aX+b), P99 ([10]; BLAC1, X in mg/L): 0.0013

Compound: O=C(Cc1cccs1)N[C@@H]1C(=O)N2C(C(=O)[O-])=C(C[n+]3ccccc3)CS[C@H]12 [Cephaloridine]
- kcat [1]: 700 s⁻¹
- kcat ([2]; Pseudomonas aeruginosa): 110 s⁻¹
- Km [2]: 20 µM
- kcat [3]: 130 s⁻¹
- Km [4]: 75 µM
- kcat [4]: 600 s⁻¹
- kcat ([5]; Serratia marcescens): 1100 s⁻¹
- Km [5]: 275 µM
- kcat [6]: 700 s⁻¹
